Assays:
[1] = tested on: genotype 1b (Con 1) subgenomic replicon cell line; assay: HCV replicon assay, genotype 1b (Renilla luciferase); type: cell-based, HCV genotype 1b (Con 1); details: Hepatitis C virus; genotype 1b replicon, 72 hours, luciferase; read-out: genotype 1b EC50 (range class)
Experimental: A genotype 1b (Con 1) subgenomic replicon cell line based on Blight et al., Science 2000 290: 1972-1974, modified to express a Renilla luciferase reporter gene was used to assess antiviral activity of test compounds. Cell cultures were maintained in a sub-confluent state in DMEM with glutamine, 10% heat-inactivated foetal bovine serum (FBS) and G418 (Geneticin®).
For assay, cells were seeded at a density of 7000 cells/well into 96 well tissue culture trays in culture media lacking G418. Compounds were tested in a three fold dilution series, for example starting from 50 uM. After 72 hours incubation at 37° C. and 5% CO2, Renilla luciferase activity was quantified via the Promega Renilla Luciferase or Renilla-Glo™ Luciferase Assay Systems (Promega corporation. The same method was employed for replicon assays using subgenomic genotype 1a and 2a replicon cell lines with a seeding cell density of 5000 cells/well for the 2a cell lines.
The compound concentration that reduced luciferase activity by 50% (EC50) was calculated using non-linear regression.

1b (BK) NS5bΔ21 = 1b (BK) NS5bΔ21 (Hepatitis C virus genotype 1b (isolate BK) (HCV), UniProt P26663); assay: HCV polymerase inhibition assay, genotype 1b; type: biochemical, HCV genotype 1b (BK); details: 1b (BK) NS5bΔ21, 33P-GTP incorporation; read-out: 1b polymerase IC50 (range class)
Chain of 1b (BK) NS5bΔ21 (P26663 2420-2989): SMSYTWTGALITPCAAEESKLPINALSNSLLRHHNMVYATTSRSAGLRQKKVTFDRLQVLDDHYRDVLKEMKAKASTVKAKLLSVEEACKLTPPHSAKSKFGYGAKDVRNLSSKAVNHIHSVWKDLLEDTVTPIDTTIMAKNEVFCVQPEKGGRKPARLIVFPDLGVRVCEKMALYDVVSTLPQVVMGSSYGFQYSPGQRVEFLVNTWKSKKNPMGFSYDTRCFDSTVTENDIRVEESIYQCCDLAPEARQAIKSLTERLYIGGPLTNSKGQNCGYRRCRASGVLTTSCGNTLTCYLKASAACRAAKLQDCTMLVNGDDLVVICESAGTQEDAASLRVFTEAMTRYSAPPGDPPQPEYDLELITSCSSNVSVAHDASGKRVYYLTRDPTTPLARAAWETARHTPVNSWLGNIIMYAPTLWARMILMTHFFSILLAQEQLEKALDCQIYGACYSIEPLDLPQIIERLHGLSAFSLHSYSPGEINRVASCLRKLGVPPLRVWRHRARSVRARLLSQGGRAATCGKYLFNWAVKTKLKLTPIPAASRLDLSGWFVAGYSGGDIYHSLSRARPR
Experimental: HCV polymerase reactions were carried out using a modified method of Howe et al., Antimicrobial Agents and Chemotherapy 2004 48(12): 4813-4821. Reactions contained a final concentration of, 0.5% DMSO, 50 nM, 1b (BK) NS5bΔ21, 20 mM Tris-HCl pH 7.5, 5 mM MgCl2, 5 mM MnCl2, 3 mM DTT, 0.05% BSA, 0.2 U/μL RNasin, 10 μg/mL Poly(rC) template, GTP (at Km) and 0.05 μCi/μL ^33P-GTP in a total reaction volume of 50 μL. Compounds were tested in a three fold dilution series, for example starting from 50 μM. Reactions were initiated with the addition of GTP and terminated after 1 hour with 50 μL ice cold 0.2 M EDTA. Terminated reactions were transferred to DEAE 96-well filter plates, unincorporated nucleotides washed from the filters and 50 μL scintillation fluid added prior to reading on a scintillation counter. Similarly, a genotype 3a (VRL-69) NS5bΔ21 polymerase enzyme assay was conducted using essentially the same method.
The compound concentration that reduced ^33P-GTP incorporation by 50% (IC50) was calculated using non-linear regression.

Which EC50 [1] does the source give for `CCOC(=O)CCCC(c1cc2nn(-c3ccc(C)cc3)c(C(=O)NC)c2cc1C1CC1)S(C)(=O)=O` (racemic) [Compound 85, ethyl 5-[5-cyclopropyl-3-(methylcarbamoyl)-2-(4-methylphenyl)-2H-indazol-6-yl]-5-(methylsulfonyl)pentanoate] here?
Its EC50 is 10 to 50 µM.

What about the IC50 (1b (BK) NS5bΔ21) of the same compound?
The IC50 was 10 to 50 µM.

With `CCC(c1cc2nn(-c3ccc(C)cc3)c(C(=O)NC)c2cc1C1CC1)S(C)(=O)=O` (racemic) [Compound 86, 5-cyclopropyl-N-methyl-2-(4-methylphenyl)-6-[1-(methylsulfonyl)propyl]-2H-indazole-3-carboxamide] as the compound, how does the EC50 [1] read?
The EC50 was 1 to 9.99 µM.

And the IC50 (1b (BK) NS5bΔ21)?
Its IC50 is 10 to 50 µM.

Which results are given for `CNC(=O)c1c2cc(C3CC3)c(N(CCCNC(=O)[C@@H]3CC(=O)N(C)C3)S(C)(=O)=O)cc2nn1-c1ccc(Br)cc1` (racemic) [Compound 182]?
EC50 [1]: 1 to 9.99 µM; IC50 (1b (BK) NS5bΔ21): < 0.99 µM

With `CNC(=O)c1c2cc(C3CC3)c(N([C@H]3CCNC3)S(C)(=O)=O)cc2nn1-c1ccc(Br)cc1` (racemic) [Compound 195] as the compound, how does the EC50 [1] read?
The EC50 was 10 to 50 µM.

And the IC50 (1b (BK) NS5bΔ21)?
The IC50 was 1 to 9.99 µM.

What does the source list for `CC[C@H](c1cc2nn(-c3ccc(F)cc3)c(C(=O)NC)c2cc1C1CC1)S(C)(=O)=O` (racemic) [Compound 240]?
EC50 [1]: 10 to 50 µM; IC50 (1b (BK) NS5bΔ21): 10 to 50 µM

How did the EC50 [1] turn out when `CNC(=O)c1c2cc(C3CC3)c([C@@H]3CN(Cc4ccccc4)C[C@H]3C(C)=O)cc2nn1-c1ccc(Br)cc1` (relative stereo) [Compound 80, trans-6-(4-acetyl-1-benzylpyrrolidin-3-yl)-2-(4-bromophenyl)-5-cyclopropyl-N-methyl-2H-indazole-3-carboxamide] was run?
Its EC50 is 1 to 9.99 µM.

How did the EC50 [1] turn out when `CNC(=O)c1c2cc(OC)c(N(CCO)S(C)(=O)=O)cc2nn1-c1ccc(F)cc1` [Compound 12, 2-(4-fluorophenyl)-6-[2-hydroxyethyl(methylsulfonyl)amino]-5-methoxy-N-methyl-indazole-3-carboxamide] was run?
Its EC50 is 10 to 50 µM.

Which IC50 (1b (BK) NS5bΔ21) does the source give for `CNC(=O)c1c2cc(C3CC3)c(N(CCOC(=O)c3ccccc3C(=O)O)S(C)(=O)=O)cc2nn1-c1ccc(F)cc1` [Compound 15, 2-[(2-{[5-cyclopropyl-2-(4-fluorophenyl)-3-(methylcarbamoyl)-2H-indazol-6-yl](methylsulfonyl)amino}ethoxy)carbonyl]benzoic acid] here?
The IC50 was 1 to 9.99 µM.

How did the IC50 (1b (BK) NS5bΔ21) turn out when `CNC(=O)c1c2cc(C3CC3)c(N(CCNC(=O)Cc3nn[nH]n3)S(C)(=O)=O)cc2nn1-c1ccc(Nc2ccc(F)cc2)cc1` [Compound 31] was run?
Its IC50 is < 0.99 µM.

For `CNC(=O)c1c2cc(C3CC3)c(N(CCO)S(C)(=O)=O)cc2nn1-c1ccc(Nc2cccc(O)c2)cc1` [Compound 33], which IC50 (1b (BK) NS5bΔ21) is on record?
Its IC50 is 10 to 50 µM.

How did the EC50 [1] turn out when `CCn1ccnc1-c1cc2nn(-c3ccc(F)cc3)c(C(=O)NC)c2cc1C1CC1` [Compound 84, 5-Cyclopropyl-6-(1-ethyl-1H-imidazol-2-yl)-2-(4-fluorophenyl)-N-methyl-2H-indazole-3-carboxamide] was run?
The EC50 was 10 to 50 µM.

Which IC50 (1b (BK) NS5bΔ21) does the source give for `CNC(=O)c1c2cc(C3CC3)c(N3CCNS3(=O)=O)cc2nn1-c1ccc(Br)cc1` [Compound 103, 2-(4-Bromophenyl)-5-cyclopropyl-6-(1,1-dioxido-1,2,5-thiadiazolidin-2-yl)-N-methyl-2H-indazole-3-carboxamide] here?
Its IC50 is 1 to 9.99 µM.

How did the IC50 (1b (BK) NS5bΔ21) turn out when `CCN(c1cc2nn(-c3ccc(OCC(C)C)cc3)c(C(=O)NC)c2cc1C1CC1)S(C)(=O)=O` [Compound 121] was run?
The IC50 was 1 to 9.99 µM.

Which EC50 [1] does the source give for `CCN(c1cc2nn(-c3ccc(F)cc3)c(C(=O)NC)c2cc1C(C)C)S(C)(=O)=O` [Compound 130] here?
The EC50 was 10 to 50 µM.

For `CCN(c1ccc2c(C(=O)NC)n(-c3ccc(F)cc3)nc2c1)S(C)(=O)=O` [Compound 137], which IC50 (1b (BK) NS5bΔ21) is on record?
Its IC50 is 10 to 50 µM.

With `CNC(=O)c1c2cc(C3CC3)c(-c3cncn3C)cc2nn1-c1ccc(F)cc1` [Compound 158] as the compound, how does the IC50 (1b (BK) NS5bΔ21) read?
The IC50 was 10 to 50 µM.

Which EC50 [1] does the source give for `CNC(=O)c1c2cc(C3CC3)c(-c3ncc(CO)s3)cc2nn1-c1ccc(F)cc1` [Compound 159] here?
The EC50 was 10 to 50 µM.

How did the EC50 [1] turn out when `CCN(C)S(=O)(=O)c1cc2nn(-c3ccc(F)cc3)c(C(=O)NC)c2cc1C1CC1` [Compound 227] was run?
The EC50 was 10 to 50 µM.

— US8546389B2 (priority 2010, dated 2013)
